Assay results published in patent publication EP3504969B1, “COMPOSITION FOR CONTROLLING FUNGAL INFECTION CAUSED BYNOSEMA CERANAE” (Universidad De Chile, priority 2015, dated 2017).

How the values were obtained:
Nosema ceranae [1] = conditions: laboratory studies; result in words; cited from earlier work
Nosema ceranae [2] = assay: Confirmation efficacy test (Marchámalo): spore reduction in infected bees, days 5, 6 and 7; format: in vivo, Apis mellifera; conditions: day 7; CD14 daily dose 4 µg/bee; fumagillin 240 µg/bee; p = 0.0001
Description: The AEselec in the previous paragraph (selected for its higher efficacy and higher yield) was assayed to confirm its activity against nosemosis using standardized tests in the Pathology Laboratory of the Centro Agrario de Marchámalo, Spain. Consequently, 3 groups of treatments were used, comprising 3 cages each and 35 bees/cage, born in laboratory, which, after a waiting period of 7 days, were infected with a load of 5 × 10^4 spores per bee. Later, a waiting period of 5 days passed to begin the application of the treatment in the ad libitum feeding. (Higes, 2007; Higes et al., 2010): • 1. Group without infection, negative control (Nl) • 2. Group infected with Nosema spp. spores, untreated positive control to which only 50% sucrose syrup with a 2% L-promoter (IST) shall be given, • 3. Group infected with Nosema spp. spores treated with peumo AE (ICT).
Spores. […] Both environmental variables were monitored through the installation of an environmental thermohygrometer. […]
Figure 6. Effectiveness of CD14 indicated as a percentage of spore reduction on days 5, 6 and 7 days of treatment at a daily dose of CD14, of 4µg/bee and 20 µg/bee of the majority of the evaluated monoterpenes. […]

SMILES	reducing the spore load of Nosema ceranae (Nosema ceranae [1])	inhibited the growth of N. ceranae spores (Nosema ceranae [2])
Oc1ccc(C=Cc2cc(O)cc(O)c2)cc1 [resveratrol]	significant effects	
CO[C@@H]1[C@H](OC(=O)/C=C/C=C/C=C/C=C/C(=O)O)CC[C@]2(CO2)[C@H]1[C@@]1(C)O[C@@H]1CC=C(C)C [fumagillin]		about 80%
Cc1ccc(C(C)C)c(O)c1 [thymol]	significant effects	
